According to patent US4450269A, “Mono-5-substituted-3-chloro-4H-1,2,6-thiadiazin-4-one antifungal agents” (FMC Corporation, priority 1980, dated 1984):
Where two headings read alike, the source gives them in different places.

Columns and labels:
[1] = system: Alternaria solani; experiment: Spore germination test; format: cell-based; conditions: AS, 48 hours
Description: (§1) The test chemical was dissolved or suspended in acetone in an amount such that 0.8 ml of the resulting suspension or solution, mixed with 40 ml water agar produced a water agar solution containing 40, 10, 2.5 and 1 ppm of test chemical. The resulting agar solution, at 50° C., was then divided equally between two sterile petri dishes, each having four separated quadrants, and allowed to solidify. […] quadrants of each dish were flooded with 0.1 ml of a spore suspension in sterile water. Spores of two pathogens, Erysiphe polygoni and Uromyes phaseoli, from infected plant leaves, were brushed on the remaining two quadrants. The tests were then incubated 48 hours, at 24° C.
(§2) Readings were then taken and the percentage of germinated spores calculated. From this percentage, a spore germination rating was assigned as follows: […]

[2] = system: Botrytis cinerea; experiment: Spore germination test; format: cell-based; conditions: BC, 48 hours
Description: as §1, §2

[3] = system: Erysiphe polygoni; experiment: Spore germination test; format: cell-based; conditions: EP, 48 hours
Description: as §1, §2

[4] = system: Uromyces phaseoli; experiment: Spore germination test; format: cell-based; conditions: UP, 48 hours
Description: as §1, §2

[5] = system: Pyricularia oryzae; format: cell-based; conditions: PO, 48 hours
[6] = system: Cladosporium cucumerinum; experiment: Spore germination test; format: cell-based; conditions: CC, 48 hours
Description: CC = Cladosporium cucumerinum
as §1, §2

[7] = system: Phytophthora infestans; format: cell-based; conditions: PI, 48 hours
[8] = system: Alternaria solani; experiment: Mycelial growth test; format: cell-based; conditions: Alternaria solani, 72 h, AS, read-out: Percent Fungus Growth Inhibition
[9] = system: Fusarium solani; experiment: Mycelial growth test; format: cell-based; conditions: Fusarium solani, 72 h
[10] = system: Sclerotinia fructicola; experiment: Mycelial growth test; format: cell-based; conditions: Sclerotinia, 72 h, SF, read-out: Percent Fungus Growth Inhibition
Text: | SF = Sclerotinia fructicola

[11] = system: Pyricularia oryzae; experiment: microbe, parasite or virus in culture; format: cell-based; conditions: Pyricularia oryzae, 72 h
[12] = system: Pythium ultimum; experiment: Mycelial growth test; format: cell-based; conditions: Globisporangium ultimum, 72 h, PU, read-out: Percent Fungus Growth Inhibition
[13] = system: Rhizoctonia solani; experiment: Mycelial growth test; format: cell-based; conditions: Rhizoctonia solani, 72 h, RS, read-out: Percent Fungus Growth Inhibition
Text: | RS = Rhizoctonia solani

[14] = system: Cladosporium cucumerinum; experiment: Mycelial growth test; format: cell-based; conditions: Cladosporium cucumerinum, CC, read-out: Percent Fungus Growth Inhibition
Text: |CC = Cladosporium cucumerinum

[15] = system: Phytophthora infestans; experiment: whole plant or invertebrate; format: in vivo; conditions: Phytophthora infestans, in Solanum lycopersicum, foliar, read-out: Percent Disease Control, foliar, tomato late blight, 150 ppm, protective
[16] = system: Pyricularia oryzae; experiment: whole plant or invertebrate; format: in vivo; conditions: Pyricularia oryzae, foliar, 24 h, read-out: Percent Disease Control, curative, rice blast, 150 ppm, 24 hours after inoculation
[17] = system: Helminthosporium oryzae; experiment: Mycelial growth test; conditions: Bipolaris oryzae, 72 h
[18] = system: Uromyces phaseoli; experiment: whole plant or invertebrate; conditions: foliar, read-out: Percent Disease Control, foliar, bean rust
[19] = system: Uromyces phaseoli; experiment: whole plant or invertebrate; conditions: foliar, 24 h, read-out: Percent Disease Control, curative, bean rust
[20] = system: Erysiphe polygoni; experiment: whole plant or invertebrate; conditions: foliar, 24 h, read-out: Percent Disease Control, curative, bean powdery mildew

## Cc1ccc(Cl)c(Oc2nsnc(Cl)c2=O)c1 [Compound 56, 3-chloro-5-[(2-chloro-5-methyl)phenoxy]-4H--1,2,6-thiadiazin-4-one]
[1]; 1.0 ppm
  Spore Germination Rating: 4 (80-100)
[1]; 2.5 ppm
  Spore Germination Rating: 3 (60-80)
[1]; 10 ppm
  Spore Germination Rating: 0 (0-10)
[1]; 40 ppm
  Spore Germination Rating: 0 (0-10)
[2]; 1.0 ppm
  Spore Germination Rating: 4 (80-100)
[2]; 2.5 ppm
  Spore Germination Rating: 0 (0-10)
[2]; 10 ppm
  Spore Germination Rating: 0 (0-10)
[2]; 40 ppm
  Spore Germination Rating: 0 (0-10)
[3]; 1.0 ppm
  Spore Germination Rating: 4 (80-100)
[3]; 2.5 ppm
  Spore Germination Rating: 2 (40-60)
[3]; 10 ppm
  Spore Germination Rating: 0 (0-10)
[3]; 40 ppm
  Spore Germination Rating: 0 (0-10)
[4]; 1.0 ppm
  Spore Germination Rating: 1 (10-40)
[4]; 2.5 ppm
  Spore Germination Rating: 0 (0-10)
[4]; 10 ppm
  Spore Germination Rating: 0 (0-10)
[4]; 40 ppm
  Spore Germination Rating: 0 (0-10)
[5]; 1.0 ppm
  Spore Germination Rating: 0 (0-10)
[5]; 2.5 ppm
  Spore Germination Rating: 0 (0-10)
[5]; 10 ppm
  Spore Germination Rating: 0 (0-10)
[5]; 40 ppm
  Spore Germination Rating: 0 (0-10)
[6]; 1.0 ppm
  Spore Germination Rating: 4 (80-100)
[6]; 2.5 ppm
  Spore Germination Rating: 0 (0-10)
[6]; 10 ppm
  Spore Germination Rating: 0 (0-10)
[6]; 40 ppm
  Spore Germination Rating: 0 (0-10)
[7]; 1.0 ppm
  Spore Germination Rating: 4 (80-100)
[7]; 2.5 ppm
  Spore Germination Rating: 0 (0-10)
[7]; 10 ppm
  Spore Germination Rating: 0 (0-10)
[7]; 40 ppm
  Spore Germination Rating: 0 (0-10)
[8]; 5 ppm
  inhibition at 5 ppm: 52%
[8]; 10 ppm
  inhibition at 10 ppm: 71%
[8]; 20 ppm
  inhibition at 20 ppm: 81%
[8]; 40 ppm
  inhibition at 40 ppm: 100%
[9]; PS, 5 ppm, 72 hours, read-out: Percent Fungus Growth Inhibition
  inhibition at 5 ppm: 70%
[9]; PS, 10 ppm, 72 hours, read-out: Percent Fungus Growth Inhibition
  inhibition at 10 ppm: 100%
[9]; PS, 20 ppm, 72 hours, read-out: Percent Fungus Growth Inhibition
  inhibition at 20 ppm: 100%
[9]; read-out: Percent Fungus Growth Inhibition, PS, 40 ppm, 72 hours
  inhibition at 40 ppm: 100%
[10]; 5 ppm
  inhibition at 5 ppm: 69%
[10]; 10 ppm
  inhibition at 10 ppm: 78%
[10]; 20 ppm
  inhibition at 20 ppm: 100%
[10]; 40 ppm
  inhibition at 40 ppm: 100%
[11]; read-out: Percent Fungus Growth Inhibition, PO, 5 ppm, 72 hours
  inhibition at 5 ppm: 38%
[11]; read-out: Percent Fungus Growth Inhibition, PO, 10 ppm, 72 hours
  inhibition at 10 ppm: 67%
[11]; read-out: Percent Fungus Growth Inhibition, PO, 20 ppm, 72 hours
  inhibition at 20 ppm: 100%
[11]; read-out: Percent Fungus Growth Inhibition, PO, 40 ppm, 72 hours
  inhibition at 40 ppm: 100%
[12]; 5 ppm
  inhibition at 5 ppm: 0%
[12]; 10 ppm
  inhibition at 10 ppm: 67%
[12]; 20 ppm
  inhibition at 20 ppm: 100%
[12]; 40 ppm
  inhibition at 40 ppm: 100%
[13]; 5 ppm
  inhibition at 5 ppm: 33%
[13]; 10 ppm
  inhibition at 10 ppm: 78%
[13]; 20 ppm
  inhibition at 20 ppm: 100%
[13]; 40 ppm
  inhibition at 40 ppm: 100%
[14]; 72 h, 5 ppm
  inhibition at 5 ppm: 26%
[14]; 72 h, 10 ppm
  inhibition at 10 ppm: 38%
[14]; 72 h, 40 ppm
  inhibition at 40 ppm: 100%
[14]; CC20, 72 h, 20 ppm
  inhibition at 20 ppm: 100%
[15]
  pest or weed control at 150 ppm: 95%
[16]
  pest or weed control at 150 ppm: 0%
[17]; read-out: Percent Fungus Growth Inhibition, HO, 5 ppm, 72 hours
  inhibition at 5 ppm: 67%
[17]; read-out: Percent Fungus Growth Inhibition, HO, 10 ppm, 72 hours
  inhibition at 10 ppm: 100%
[17]; read-out: Percent Fungus Growth Inhibition, HO, 20 ppm, 72 hours
  inhibition at 20 ppm: 100%
[17]; read-out: Percent Fungus Growth Inhibition, HO, 40 ppm, 72 hours
  inhibition at 40 ppm: 100%
[18]
  pest or weed control at 150 ppm: 0%
[19]
  pest or weed control at 150 ppm: 100%
[20]
  pest or weed control at 150 ppm: 0%
